This note sets out measurements from patent publication US10590086B2, “Pharmaceutical compound” (IOmet Pharma Ltd., priority 2014, dated 2020).

Assay [1] has as its target T1, TDO (Homo sapiens, UniProt P48775). As to the kind of experiment: hTDO biochemical coupled assay. As to conditions: 330 μM L-tryptophan, 17 minutes, room temperature; read-out: hTDO biochemical assay pIC50 (converted).
Assay [2] has as its target T1, TDO. The assay is described as follows: A172 kynurenine cell-based assay. The note with it: A172 human glioblastoma cells, 48 hours, 500 μM L-tryptophan; read-out: A172 Kynurenine cell based assay pIC50 (converted). Also noted: This assay utilised cancer cells which expressed either TDO or IDO; endogenous in cells; host or cells: A172 (human glioblastoma). In a few lines: (§1)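 A172 glioblastoma cells (TDO; 30,000/well) and SKOV3 ovarian cells (IDO induced with 500 ng/ml IFN-γ; 40,000/well) were grown in phenol red-free RPMI with 10% FCS, 2 mM L-glutamine and 500 μM L-tryptophan. They were incubated ±compound for 48 hours at 37 °C. Supernatant kynurenine was read with Ehrlich's reagent (5 min) at […] absorbance.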

Assay [3] has as its target T2, IDO (Homo sapiens, UniProt P14902). The assay is described as follows: SKOV3 kynurenine cell-based assay (IDO induced by IFN-γ). Also noted: IDO expression was induced in the SKOV3 cells by the addition of 500 ng/ml IFN-γ; endogenous in cells; host or cells: SKOV3 (human ovarian adenocarcinoma), induced with IFN-γ. The note with it: SKOV3 human ovarian adenocarcinoma cells, 500 ng/ml IFN-γ, 48 hours, 500 μM L-tryptophan; read-out: SKOV3 Kynurenine cell based assay pIC50 (converted). Put shortly: as §1

Assay [4] addresses T2, IDO. The assay is described as follows: hIDO biochemical coupled assay. The note with it: 45 μM L-tryptophan, 17 minutes, room temperature; read-out: hIDO biochemical assay pIC50 (converted).
Description: Two different assays were employed: 1. a cell-based assay for detecting the effect of test compounds on kynurenine production in two different cancer cell types. This assay utilised cancer cells which expressed either TDO or IDO and as such was used as a means of testing compound activity at these two enzymes in a cell-based context. 2. a TDO and IDO biochemical coupled assay which utilised recombinantly produced and purified TDO and IDO enzymes in combination with the enzyme formamidase. This coupled enzyme system allowed conversion of N-formylkynurenine produced by TDO or IDO activity to kynurenine which was then quantified by fluorescence following addition of Erhlich's Reagent The protocols for these are set out below.

Bounds are passed on as bounds.

T1 sequence (P48775 whole entry): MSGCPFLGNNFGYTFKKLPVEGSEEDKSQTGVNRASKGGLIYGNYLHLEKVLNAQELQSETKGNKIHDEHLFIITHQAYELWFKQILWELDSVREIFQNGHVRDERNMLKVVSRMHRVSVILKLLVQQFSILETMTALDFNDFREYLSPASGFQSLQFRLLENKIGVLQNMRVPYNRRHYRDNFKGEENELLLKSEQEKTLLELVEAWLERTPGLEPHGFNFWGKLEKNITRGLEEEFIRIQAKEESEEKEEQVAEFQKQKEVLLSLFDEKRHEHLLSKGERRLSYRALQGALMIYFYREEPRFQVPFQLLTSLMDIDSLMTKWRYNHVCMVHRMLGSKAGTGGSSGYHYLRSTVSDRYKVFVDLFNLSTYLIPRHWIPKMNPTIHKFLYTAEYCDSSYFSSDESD
T2 sequence (P14902 whole entry): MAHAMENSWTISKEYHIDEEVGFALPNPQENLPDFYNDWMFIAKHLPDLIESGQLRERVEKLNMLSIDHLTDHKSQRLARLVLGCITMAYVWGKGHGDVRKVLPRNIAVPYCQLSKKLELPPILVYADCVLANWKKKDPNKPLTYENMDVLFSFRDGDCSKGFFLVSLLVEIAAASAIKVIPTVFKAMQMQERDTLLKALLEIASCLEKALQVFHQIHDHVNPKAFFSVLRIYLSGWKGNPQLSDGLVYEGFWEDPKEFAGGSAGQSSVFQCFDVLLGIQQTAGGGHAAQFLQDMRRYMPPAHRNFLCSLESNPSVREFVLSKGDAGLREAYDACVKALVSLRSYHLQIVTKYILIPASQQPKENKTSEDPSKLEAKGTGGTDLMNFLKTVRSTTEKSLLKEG

In the case of `OC1(c2ccccc2)CCN(c2cc(Cl)cc3[nH]ncc23)CC1` [Compound 207], the IC50 was less than 3.16 µM at TDO [1], less than 3.16 µM on TDO [2], 3.24 to 31.6 µM on IDO [3] and 3.24 to 31.6 µM on IDO [4].
As to `CC(=O)NC1CCN(c2cc(Cl)cc3[nH]ncc23)CC1` [Compound 250], the IC50 was less than 3.16 µM at TDO [1], less than 3.16 µM at TDO [2], 3.24 to 31.6 µM on IDO [3] and 32.4 to 100 µM on IDO [4].
`CS(=O)(=O)NCCN1CCN(c2cc(Cl)cc3[nH]ncc23)CC1` [Compound 403]: the IC50 on TDO [1] is less than 3.16 µM; at TDO [2], less than 3.16 µM; at IDO [3] it was more than 100 µM; at IDO [4], more than 100 µM.
With `O=C1NC2(CCN(c3cc(Cl)cc4[nH]ncc34)CC2)C(=O)N1CC1CCOCC1` [Compound 391], the IC50 at TDO [1], at TDO [2], on IDO [3] and on IDO [4] was less than 3.16 µM throughout.
Consider `CC(C)S(=O)(=O)N1CCN(c2cccc3[nH]ncc23)CC1` [Compound 22], for which the IC50 on TDO [1] is 3.24 to 31.6 µM; at TDO [2], 3.24 to 31.6 µM; on IDO [3], 32.4 to 100 µM; on IDO [4], more than 100 µM.
Turning to `CN(C)CCN1C(=O)NC2(CCN(c3cc(Cl)cc4[nH]ncc34)CC2)C1=O` [Compound 392], the IC50 on TDO [1], at TDO [2], on IDO [3] and on IDO [4] was less than 3.16 µM each time.
Take `CNC(=O)CC1CCN(c2cc(Cl)cc3[nH]ncc23)CC1` [Compound 364]: the IC50 at TDO [1] is less than 3.16 µM; on TDO [2], less than 3.16 µM; at IDO [3], 3.24 to 31.6 µM; on IDO [4], more than 100 µM.
For `O=C1NC(=O)C2(CCN(c3cc(Br)cc4[nH]ncc34)CC2)N1` [Compound 290], the IC50 at TDO [1], at TDO [2], at IDO [3] and on IDO [4] was less than 3.16 µM throughout.
As to `CC(=O)N1CCC(c2cccc3[nH]ncc23)CC1` [Compound 14], the IC50 is 32.4 to 100 µM at TDO [1], 3.24 to 31.6 µM at TDO [2], 32.4 to 100 µM at IDO [3] and more than 100 µM at IDO [4].
In the case of `Clc1cc(N2CCc3cn[nH]c3C2)c2cn[nH]c2c1` [Compound 417], the IC50 on TDO [1] is less than 3.16 µM; on TDO [2], less than 3.16 µM; at IDO [3], more than 100 µM; on IDO [4], more than 100 µM.
`COc1cc(S(C)(=O)=O)ccc1-c1cc(Cl)cc2[nH]ncc12` [Compound 266]: the IC50 at TDO [1] was less than 3.16 µM; on TDO [2], less than 3.16 µM; at IDO [3], 3.24 to 31.6 µM; at IDO [4], more than 100 µM.
As for `CS(=O)(=O)N1CCN(c2cc(Cl)cc3c(N)n[nH]c23)CC1` [Compound 306], the IC50 on TDO [1] is more than 100 µM; on TDO [2], 3.24 to 31.6 µM; on IDO [3] it was 3.24 to 31.6 µM; on IDO [4], more than 100 µM.
With `Cn1cc2c(n1)CN(c1cc(Cl)cc3[nH]ncc13)CC2` [Compound 433], the IC50 on TDO [1] is less than 3.16 µM; on TDO [2] it was 3.24 to 31.6 µM; at IDO [3], more than 100 µM; at IDO [4], more than 100 µM.
Take `CN1C(=O)[C@@H]2CC[C@H]1CN(c1cc(C(F)(F)F)cc3[nH]ncc13)C2` [Compound 447]: the IC50 on TDO [1] was less than 3.16 µM; at TDO [2] it was less than 3.16 µM; at IDO [3] it was more than 100 µM; on IDO [4] it was 3.24 to 31.6 µM.
In the case of `CS(=O)(=O)N1CCN(c2cc(C(F)(F)F)cc3[nH]ncc23)C2CCCCC21` (stereo not drawn) [Compound 340], the IC50 at TDO [1] is more than 100 µM; at TDO [2], 3.24 to 31.6 µM; on IDO [3] it was 32.4 to 100 µM; at IDO [4] it was more than 100 µM.
As for `CCS(=O)(=O)N1CCC(c2cc(Cl)cc3[nH]ncc23)CC1` [Compound 423], the IC50 at TDO [1] is less than 3.16 µM; at TDO [2], less than 3.16 µM; on IDO [3], 3.24 to 31.6 µM; on IDO [4], less than 3.16 µM.
`CNC(=O)c1ccc(N2CCN(c3cc(Cl)cc4[nH]ncc34)CC2)cc1` [Compound 445]: the IC50 at TDO [1] is less than 3.16 µM; on TDO [2], less than 3.16 µM; on IDO [3] it was less than 3.16 µM; at IDO [4] it was more than 100 µM.
In the case of `O=C1CCCN1C1CCN(c2cc(Cl)cc3[nH]ncc23)CC1` [Compound 372], the IC50 at TDO [1] was less than 3.16 µM; on TDO [2], less than 3.16 µM; on IDO [3] it was 3.24 to 31.6 µM; at IDO [4] it was more than 100 µM.
In the case of `CS(=O)(=O)N1CC2(CCN(c3cc(Cl)cc4[nH]ncc34)CC2)C1` [Compound 351], the IC50 on TDO [1] was less than 3.16 µM; at TDO [2], less than 3.16 µM; on IDO [3], 3.24 to 31.6 µM; at IDO [4], 32.4 to 100 µM.
Turning to `CN1C(=O)NC(C2CCN(c3cc(Cl)cc4[nH]ncc34)CC2)C1=O` (stereo not drawn) [Compound 444], the IC50 at TDO [1] was less than 3.16 µM; on TDO [2], less than 3.16 µM; at IDO [3], more than 100 µM; on IDO [4] it was more than 100 µM.
In the case of `O=C1NC(=O)C(C2CCN(c3cc(Cl)cc4[nH]ncc34)CC2)N1` (stereo not drawn) [Compound 443], the IC50 is less than 3.16 µM at TDO [1], less than 3.16 µM on TDO [2], more than 100 µM at IDO [3] and more than 100 µM at IDO [4].
As for `Cc1nc2c(o1)CN(c1cc(C(F)(F)F)cc3[nH]ncc13)CC2(C)C` [Compound 434], the IC50 on TDO [1] is less than 3.16 µM; at TDO [2], less than 3.16 µM; on IDO [3], more than 100 µM; on IDO [4] it was more than 100 µM.
`CS(=O)(=O)N1CCN(c2cc(C(F)(F)F)cc3[nH]ncc23)C2CCCCC21` (single isomer, unassigned) [Compound 415]: the IC50 is 3.24 to 31.6 µM at TDO [1], 3.24 to 31.6 µM on TDO [2], more than 100 µM at IDO [3] and more than 100 µM on IDO [4].
`O=C1N[C@H]2CC[C@@H]1CN(c1cc(C(F)(F)F)cc3[nH]ncc13)C2` [Compound 439]: the IC50 on TDO [1] was less than 3.16 µM; at TDO [2] it was less than 3.16 µM; on IDO [3], more than 100 µM; on IDO [4], 3.24 to 31.6 µM.
For `CC1(C)CN(c2cccc3[nH]ncc23)CCN1S(C)(=O)=O` [Compound 26], the IC50 is less than 3.16 µM on TDO [1], less than 3.16 µM on TDO [2], 3.24 to 31.6 µM on IDO [3] and 3.24 to 31.6 µM on IDO [4].
Consider `Cc1nc2c(o1)CN(c1cc(Cl)cc3[nH]ncc13)CC2(C)C` [Compound 425], for which the IC50 at TDO [1] is less than 3.16 µM; at TDO [2], less than 3.16 µM; on IDO [3] it was more than 100 µM; on IDO [4] it was more than 100 µM.
With `O=C1NC2(CCN(c3cc(Cl)cc4[nH]ncc34)CC2)C(=O)N1CC(F)(F)F` [Compound 405], the IC50 at TDO [1], at TDO [2], at IDO [3] and at IDO [4] was less than 3.16 µM in each case.
In the case of `CC(=O)N1CCC(CNC(=O)c2cc(Cl)cc3[nH]ncc23)CC1` [Compound 295], the IC50 is more than 100 µM on TDO [1], more than 100 µM on TDO [2], 32.4 to 100 µM on IDO [3] and more than 100 µM at IDO [4].
Turning to `CNC(=O)CN1CCC(c2cc(Cl)cc3[nH]ncc23)CC1` [Compound 401], the IC50 on TDO [1] is less than 3.16 µM; on TDO [2] it was less than 3.16 µM; at IDO [3] it was more than 100 µM; at IDO [4], more than 100 µM.
`CC(=O)N1CCN(c2cc(Cl)cc3c(N)n[nH]c23)CC1` [Compound 322]: the IC50 was more than 100 µM on TDO [1], 3.24 to 31.6 µM on TDO [2], 3.24 to 31.6 µM at IDO [3] and more than 100 µM on IDO [4].
